Data published in patent US7160733B2, “Ligand specific to β2-glycoprotein I and use thereof” (priority 2001, dated 2007).

Key:
β2-GPI = target: T1, β2-GPI (Homo sapiens, UniProt P02749); assay: ELISA on solid-phase lipid (ligand)-coated plate: β2-GPI binding detected with Cof-22; conditions: for β2-GPI binding to lipid: result in words (discussion)
T1 construct: β2-GPI was purified from normal human plasma as described in [35] with slight modification; from tissue; host or cells: pooled normal human plasma from healthy subjects
T1 sequence (P02749 20-345): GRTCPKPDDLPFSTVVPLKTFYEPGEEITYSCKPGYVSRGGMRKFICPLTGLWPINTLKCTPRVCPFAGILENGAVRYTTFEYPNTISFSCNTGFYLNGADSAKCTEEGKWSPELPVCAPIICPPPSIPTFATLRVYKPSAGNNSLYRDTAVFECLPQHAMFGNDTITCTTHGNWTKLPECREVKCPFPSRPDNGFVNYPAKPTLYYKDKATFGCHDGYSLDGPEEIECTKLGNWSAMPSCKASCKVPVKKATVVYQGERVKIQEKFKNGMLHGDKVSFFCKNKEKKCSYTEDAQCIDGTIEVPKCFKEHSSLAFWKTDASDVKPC
Protocol: (§1) Binding to extracted lipids: A microtiter plate (Immulon 1B, Dynex Technologies Inc.) was coated with lipids extracted from LDLs (50 μg/mL, 50 μL/well) by ethanol evaporation. The wells were blocked with PBS containing 1% BSA for one hour and the wells were incubated with 30 μg/mL of β2-GPI for one hour. Then, β2-GPI binding was detected using Cof-22 and HRP-labeled anti-mouse IgG antibodies. Alternatively, an anti-β2-GPI autoantibody (Cof-22, WB-CAL-1, or EY2C9) was diluted with a 0.3% BSA-containing PBS, and the diluted antibody was added to the coated plate (1.0 μg/mL, 100 μL/well) and incubated with β2-GPI (15 μg/mL) for one hour. The binding of the antibody was detected by an HRP-labeled anti-mouse IgG /or an anti-human IgM. The color was developed with H2O2 and o-phenylenediamine, and OD was measured at 490 nm. Between these steps, extensive washing were done using PBS containing 0.05% Tween 20.
(§2) Synthesized oxLig-1 (50 μg/mL, 50 μL/well) was adsorbed by evaporation on a polystyrene plate (Immulon 1B; Dynex Technologies Inc.), and the plate was then blocked with 1% BSA. Serum samples (diluted 1:100 with PBS containing 0.3% BSA) were incubated in the wells with β2-GPI (15 μg/mL) or other proteins for one hour at room temperature. Antibody binding was detected with HRP-labeled anti-human IgG. Further steps were performed through a method as described in “anti-β2-GPI ELISA.”
(§3) CL (50 μg/mL, 50 μL/well) was adsorbed on a polystyrene plate (Immulon 1B), and further steps were performed through a method as described in “ELISA for antibodies against a protein-oxLig-1 complex.”

anti-β2-GPI antibodies = assay: ELISA of the anti-β2-GPI antibodies by use of a ligand-coated plate (results in words); type: binding; conditions: result in words
Protocol: as §1, §2

WB-CAL-1 = assay: ELISA on solid-phase lipid (ligand)-coated plate: WB-CAL-1 binding in presence of β2-GPI; design: species or system mouse; conditions: absorbance at 490 nm, mean ± SD (n = 3); solid-phase ligand not methylated
Protocol: as §1, §2, §3

EY2C9 = assay: ELISA on solid-phase lipid (ligand)-coated plate: EY2C9 binding in presence of β2-GPI; design: species or system human; conditions: absorbance at 490 nm, mean ± SD (n = 3); solid-phase ligand not methylated
Protocol: as §1, §2, §3

J774A.1 cells = assay: Liposome binding to macrophages (3H-labeled liposomes, 4° C.); type: cell-based, murine; conditions: result in words
Protocol: FIG. 10. Effect of phosphatidylserine (PS) or oxLig-1 content on the binding of liposomes to macrophages. A monolayer of J774.A1 cells was incubated for 2 hours at 4° C. with Celgrosser-P medium containing ^3H-labeled liposomes (50 nmol lipid/well). Open circle represents PS-liposomes; closed circle represents PS-Chol-liposomes; open square represents oxLig-1-liposomes; and closed square represents oxLig-1-Chol-liposomes. Data are indicated as the mean± SD of triplicate samples.
FIG. 11. β2-GPI and anti-β2-GPI monoclonal antibody-dependent binding of ligand-containing liposomes to macrophage. A monolayer of J774.A1 cells was incubated for 2 hours at 4° C. with Celgrosser-P medium containing ^3H-labeled liposomes (50 nmol lipid/well) and WB-CAL-1, in the presence or absence of β2-GPI (200 μg/ml). • A: Binding of PS-liposomes (PS: 50 mol %,) to J774.A1. cells in the presence (closed square) or absence (open square) of β2-GPI (200 μg/ml) • B: Binding of oxLig-1-liposomes (oxLig-1: 40 mol %) to J774.A1 cells in the presence (black bar) or absence (white bar) of β2-GPI (200 μg/ml). • C: A monolayer of J774.A1 cells was incubated for 2 hours at 4° C. with Celgrosser-P medium containing ^3H-labeled synthesized oxLig-1-liposomes (50 nmol lipid/well) and WB-CAL-1, in the presence or absence of β2-GPI (200 μg/ml). Binding of synthesized oxLig-1-liposomes in the absence of β2-GPI and WB-CAL-1 (open circle), binding of synthesized oxLig-1-liposomes in the presence of β2-GPI (open square), binding of synthesized oxLig-1-liposomes in the presence of WB-CAL-1 (closed square), and binding of synthesized oxLig-1-liposomes in the presence of both β2-GPI and WB-CAL-1 (closed circle). Data are indicated as the mean ± SD of triplicate samples.
A monolayer of J774.A1 cells was incubated for 2 hours at 4° C. with Celgrosser-P medium containing [^3H]-labeled liposomes (containing a predetermined ligand, 50 nmol lipid/well). DPPS-containing liposomes (open squares), oxLig-1-containing liposomes (closed squares), oxLig-2-containing liposomes (closed circles), and 13-COOH-7KC-containing liposomes (closed triangles). Data are indicated as mean± SD of triplicate samples.
A monolayer of J774.A1 cells was incubated for 2 hours at 4° C. with Celgrosser-P medium containing [^3H]-labeled liposomes (containing a predetermined ligand (30 mmol %), 50 nmol lipid/well) and in the presence (black bars) or absence (white bars) of β2-GPI (200 μg/mL) and WB-CAL-1 ([…]).
A monolayer culture of murine macrophage-like cells (J774A.1) obtained from Riken Cell Bank (Tsukuba) was maintained in RPMI 1640 medium supplemented with 10% fetal carf serum (FCS). For binding experiments, the cells (8×10^5 cells/mL, RPMI1640) were dispensed in an amount of 1 mL/well into a 12-well culture plate (Sumitomo Bakelite Co., Ltd.) and were incubated for 24 hours at 37° C., then the culture broth was replaced with Celgrosser-P medium (Sumitomo Pharmaceutical Co.). After one hour of preincubation at 37° C., 50 μL of liposomes (50 nmol lipid/well) with or without β2-GPI (200 μg/mL) and WB-CAL-1 (100 μg/mL) were added to each culture, and the cells were incubated at 4° C. and/or 37° C. The wells were next washed with chilled PBS, and the cells were lysed by adding 1 mL of 0.1N NaOH. An aliquot was taken for determination of cellular proteins and of radioactivity associated with the cells. Protein concentration was determined in a manner as described above.

| SMILES | β2-GPI binding to lipid (β2-GPI) | binding of the three antibodies (WB-CAL-1, EY2C9, mouse monoclonal anti-β2-GPI antibody) to immobilized lipid (anti-β2-GPI antibodies) | β2-GPI binding (Cof-22 binding), No treatment (β2-GPI; absorbance at 490 nm, mean ± SD (n = 3), solid-phase ligand not methylated) | WB-CAL-1 binding, No treatment (WB-CAL-1) | EY2C9 binding, No treatment (EY2C9) | binding of the anti-β2-GPI autoantibodies (WB-CAL-1 and EY2C9) to solid-phase ligand (anti-β2-GPI antibodies; ligand-coated plate) | direct binding of liposomes to macrophages (J774A.1 cells; J774A.1 cells, 2 hours at 4° C., 50 nmol lipid/well, without β2-GPI and antibody) | binding of liposomes to macrophages after methylation of the ligand (J774A.1 cells; liposomes containing methylated ligand, with β2-GPI and WB-CAL-1, FIGS. 20C and 20D) | uptake of ligand-containing liposomes to J774A.1 cells in the presence of both β2-GPI and WB-CAL-1 (J774A.1 cells; liposomes containing the ligand, compared with cholesteryl linoleate-liposomes (control), FIG. 20) |
| --- | --- | --- | --- | --- | --- | --- | --- | --- | --- |
| CC(C)CCC[C@@H](C)[C@H]1CC[C@H]2[C@@H]3C(=O)C=C4C[C@@H](O)CC[C@]4(C)[C@H]3CC[C@]12C [7-ketocholesterol, 5-cholesten-3β-ol-7-one, reference compound] | did not bind | did not bind |  |  |  |  |  |  |  |
| CC(C)CCC[C@@H](C)[C@H]1CC[C@H]2[C@@H]3CC=C4C[C@@H](O)CC[C@]4(C)[C@H]3CC[C@]12C [cholesterol, Cholesterol, reference compound] | did not bind | did not bind |  |  |  |  |  |  |  |
| CC(C)CCC[C@@H](C)[C@H]1CC[C@H]2[C@@H]3C(=O)C=C4C[C@@H](OC(=O)CCCCCCCC(=O)CCC(=O)O)CC[C@]4(C)[C@H]3CC[C@]12C [oxLig-2, 4,12-dioxo-12-(7-ketocholest-5-en-3β-yloxy)dodecanoic acid] | significant bonding |  | 1.002 +/− 0.084 | 0.518 +/− 0.023 | 1.018 +/− 0.121 | significant binding | relatively low or negligible small | substantially no binding | significantly enhanced |
